Common to all, as to assay: growth of human tumour cells (NCI), 48 h
Assay [1] has as its system RXF 393 renal.
Assay [2] has as its system KM12 colon.
Assay [3] has as its system HL-60(TB) leukemia.
Assay [4] concerns SF-539 CNS.
For assay [5], the system named is UACC-257 melanoma.
The subject of assay [6] is BT-549 breast.
Assay [7] concerns NCI/ADR-RES ovarian.
The subject of assay [8] is RPMI-8226 leukemia.
Assay [9] has as its system SNB-19 CNS.
The subject of assay [10] is SF-295 CNS.

Where “and” joins values, the source holds several entries; their conditions need not be identical. Identical values can stand only once.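 A five-concentration, 48-hour dose response in 96-well plates underlies each endpoint, interpolated linearly between surrounding concentrations. GI50 is the concentration that inhibits growth by half. TGI: concentration producing complete growth inhibition.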

Consider `O=C1OC(c2ccc(Cl)cc2)=N/C1=C\c1ccccc1`, for which the TGI in assay [1], in assay [2], in [3], in [4], in assay [5] and in assay [6] was more than 100 µM throughout. The TGI in assay [7], in assay [8], in assay [9] and in assay [10] was more than 100 µM throughout.
In the case of `CC(C)=Cc1cccc2[nH]c(O)c(N=Nc3ccc(S(N)(=O)=O)cc3)c12`, the GI50 in [1] is 0.987 µM; in [2] it was 0.1 µM; in [3], 3.37 µM; in assay [4], 2.72 µM; in assay [5], more than 25 µM; in assay [6], more than 22.8 µM. For the same compound, the GI50 in [7] is more than 23.4 µM; in [8] it was 8.16 µM; in assay [9], more than 14.6 µM; in assay [10], 3.4 µM. The TGI in assay [1] was more than 19.4 µM; in assay [2], more than 18.6 µM; in assay [3] it was more than 25 µM; in [4], more than 20.1 µM; in [5] it was more than 25 µM; in assay [6], more than 25 µM. The TGI in [7], in assay [8], in assay [9] and in assay [10] was more than 25 µM each time.
With `Cc1cc(=O)oc2cc3oc(N(C)c4ccccc4)nc(=O)c3cc12`, the TGI in assay [1], in [2], in assay [3], in assay [4], in assay [5] and in [6] was more than 100 µM throughout. Moreover, the TGI in assay [7], in [8], in [9] and in assay [10] was more than 100 µM in each case.
On to `C=CCOc1ccc(N)c([N+](=O)[O-])c1`, for which the TGI in assay [1], in assay [2], in assay [3], in [4], in [5] and in [6] was more than 100 µM throughout. The TGI in [7], in assay [8], in assay [9] and in assay [10] was more than 100 µM in each case.
Turning to `CCCCc1n(Cc2ccc3ccccc3n2)cc[n+]1Cc1ccc2ccccc2n1`, the GI50 in assay [1] was 4.17 µM; in assay [2] it was 0.742 µM; in assay [3], 0.295 µM; in assay [4] it was 1.8 µM; in assay [5], 0.543 µM; in assay [6] it was 0.97 µM. Moreover, the GI50 in assay [7] is more than 100 µM; in assay [8], 0.295 µM; in [9], 0.826 µM; in [10] it was 2.45 µM. Moreover, the TGI amounted to 16.5 µM in assay [1]; 6.19 µM in assay [2]; 1.11 µM in assay [3]; 12.6 µM in assay [4]; 4.32 µM in [5]; 5.86 µM in assay [6]. In addition, the TGI in assay [7] was more than 100 µM; in [8], 3.28 µM; in [9] it was 12.9 µM; in assay [10], 9.88 µM.
For `Fc1ccc(-c2ncn(CCCN3CCOCC3)c2-c2ccncc2)cc1`, the GI50 in [1], in assay [2], in assay [3], in assay [4], in assay [5] and in assay [6] was more than 25 µM each time. Further, the GI50 in assay [7], in [8], in [9] and in assay [10] was more than 25 µM in each case. Further, the TGI in assay [1], in assay [2], in assay [3], in [4], in [5] and in assay [6] was more than 25 µM in each case. Moreover, the TGI in assay [7], in assay [8], in [9] and in assay [10] was more than 25 µM each time.
For `CCCS(=O)(=O)Nc1cccc(Nc2ncnc3cc(NC(=O)CCl)ccc23)c1Cl`, the GI50 in assay [1] is 3.26 µM; in [2] it was 3.06 µM; in [3], 4.28 µM; in [4] it was 1.35 µM; in assay [5], 2.46 µM; in [6], 2.42 µM. Moreover, the GI50 in assay [7] was 6.95 µM; in assay [8] it was 3.23 µM; in assay [9], 1.35 µM; in [10] it was 3.33 µM. Also, the TGI in assay [1] stood at 7.13 µM; in assay [2], 7.13 µM; in [3], 10.9 µM; in assay [4] it was 4.54 µM; in assay [5], 7.57 µM; in [6] it was 6.69 µM. Besides, the TGI is 25 µM in assay [7], 8.56 µM in assay [8], 4.58 µM in assay [9] and 7.17 µM in assay [10].
With `CC1OC(CC(=O)O)Cc2c1c(O)c1c(O)cc(-c3cc(=O)c4c(=O)c5c(c(=O)c=4c3=O)CC(CC(=O)O)OC5C)c(O)c1c2O` (configuration not stated), the GI50 was 12 µM in assay [1]; 32.5 µM in [2]; 59.3 µM in assay [4]; 21.8 µM in assay [5]; 52.7 µM in [6]; 59.6 µM in assay [7]. The values for the GI50 in assay [8], in assay [9] and in [10] were 20.9 µM, 66.6 µM and 77.3 µM, respectively. For the same compound, the TGI in assay [1] was 20.3 µM and 27 µM; in assay [2] it was more than 100 µM; in assay [3], more than 49.1 µM; in assay [4] it was 36 µM; in assay [5], 26.9 µM and 66.9 µM; in assay [8], 81.6 µM and 68.7 µM. For the same compound, the TGI in assay [9] and in assay [10] was more than 100 µM throughout.
